Measurements taken from PubChem BioAssay AID330 (DTP/NCI, 2004).
Values joined by “and” are separate entries in the source; they are usually repeats but may differ in a detail not shown here. Equal entries are not always repeated. Inconclusive results and toxic doses are left out. The calls were made as follows: active = survival T/C of 150% or more; inactive = T/C below 125% in these data.

Test system: P388 leukemia ip, CD2F1 mice, survival T/C
Assay: NCI In Vivo Anticancer Drug Screen. Data for tumor model P388 Leukemia (intraperitoneal) in CD2F1 (CDF1) mice
Settings: endpoint: median survival time, higher = longer survival
Method in brief: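 Mice carrying the transplanted tumor received test compound or vehicle. Survival was recorded in each group, and the value is the treated-group measurement divided by that of the vehicle-treated control group.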

[1] = dose: 50.0 mg/kg/injection, schedule: Q01DX005 (ip), vehicle: Klucel (hydroxypropylcellulose) (HPC)
[2] = dose: 60.0 mg/kg/injection, schedule: Q01DX005 (ip), vehicle: Klucel (hydroxypropylcellulose) (HPC)
[3] = dose: 120.0 mg/kg/injection, schedule: Q01DX005 (ip), vehicle: Klucel (hydroxypropylcellulose) (HPC)
[4] = dose: 240.0 mg/kg/injection, schedule: Q01DX005 (ip), vehicle: Klucel (hydroxypropylcellulose) (HPC)
[5] = dose: 100.0 mg/kg/injection, schedule: Q01DX005 (ip), vehicle: Klucel (hydroxypropylcellulose) (HPC)
[6] = dose: 200.0 mg/kg/injection, schedule: Q01DX005 (ip), vehicle: Klucel (hydroxypropylcellulose) (HPC)
[7] = dose: 50.0 mg/kg/injection, schedule: Q01DX005 (ip), vehicle: saline with Tween-80
[8] = dose: 100.0 mg/kg/injection, schedule: Q01DX005 (ip), vehicle: saline with Tween-80
[9] = dose: 200.0 mg/kg/injection, schedule: Q01DX005 (ip), vehicle: saline with Tween-80
[10] = dose: 60.0 mg/kg/injection, schedule: Q01DX005 (ip), vehicle: saline with Tween-80
[11] = dose: 120.0 mg/kg/injection, schedule: Q01DX005 (ip), vehicle: saline with Tween-80
[12] = dose: 240.0 mg/kg/injection, schedule: Q01DX005 (ip), vehicle: saline with Tween-80
[13] = dose: 100.0 mg/kg/injection, schedule: Q01DX009 (ip), vehicle: saline with Tween-80
[14] = dose: 200.0 mg/kg/injection, schedule: Q01DX009 (ip), vehicle: saline with Tween-80
[15] = dose: 50.0 mg/kg/injection, schedule: Q01DX009 (ip), vehicle: saline
[16] = dose: 100.0 mg/kg/injection, schedule: Q01DX009 (ip), vehicle: saline
[17] = dose: 200.0 mg/kg/injection, schedule: Q01DX009 (ip), vehicle: saline

Measured: T/C

COc1ccc(/C=C/c2ccc3ccccc3[n+]2C)cc1Br
inactive: dose: 12.5 mg/kg/injection, schedule: Q01DX005 (ip), vehicle: Klucel (hydroxypropylcellulose) (HPC) 113 % of control | dose: 25.0 mg/kg/injection, schedule: Q01DX005 (ip), vehicle: Klucel (hydroxypropylcellulose) (HPC) 113 % of control | [1] 113 % of control and 119 % of control

CC1(C)OC1C1CC(C2CCC3(C)C4=CCC5C(C)(C)C(=O)CCC5(C)C4CCC23C)C(O)O1 (stereo not drawn)
inactive: dose: 1.5 mg/kg/injection, schedule: Q01DX009 (ip), vehicle: Klucel (hydroxypropylcellulose) (HPC) 90 % of control | dose: 3.0 mg/kg/injection, schedule: Q01DX009 (ip), vehicle: Klucel (hydroxypropylcellulose) (HPC) 94 % of control | dose: 6.0 mg/kg/injection, schedule: Q01DX009 (ip), vehicle: Klucel (hydroxypropylcellulose) (HPC) 103 % of control | dose: 12.0 mg/kg/injection, schedule: Q01DX009 (ip), vehicle: Klucel (hydroxypropylcellulose) (HPC) 100 % of control

O=C(COc1ccc(Cl)cc1)OC(=O)COc1ccc(Cl)cc1
inactive: dose: 25.0 mg/kg/injection, schedule: Q01DX009 (ip), vehicle: other 110 % of control | dose: 50.0 mg/kg/injection, schedule: Q01DX009 (ip), vehicle: other 112 % of control | dose: 100.0 mg/kg/injection, schedule: Q01DX009 (ip), vehicle: other 110 % of control | dose: 200.0 mg/kg/injection, schedule: Q01DX009 (ip), vehicle: other 106 % of control

Brc1ccc2nc3ccccc3c(SCCCCCCSc3c4ccccc4nc4ccc(Br)cc34)c2c1
inactive: [2] 87 % of control and 93 % of control | [3] 89 % of control | [4] 91 % of control

N/C(=N\S(=O)(=O)c1ccccc1)[N+](=O)[O-]
inactive: [1] 102 % of control | [5] 102 % of control | [6] 98 % of control

CC(=O)CSCP(=O)(c1ccccc1)c1ccccc1
inactive: [7] 100 % of control | [8] 99 % of control | [9] 99 % of control

Cc1ncoc1C(=O)Nc1ccc([N+](=O)[O-])cc1[N+](=O)[O-]
inactive: dose: 100.0 mg/kg/injection, schedule: Q04DX002 (ip), vehicle: Klucel (hydroxypropylcellulose) (HPC) 103 % of control | dose: 200.0 mg/kg/injection, schedule: Q04DX002 (ip), vehicle: Klucel (hydroxypropylcellulose) (HPC) 100 % of control | dose: 400.0 mg/kg/injection, schedule: Q04DX002 (ip), vehicle: Klucel (hydroxypropylcellulose) (HPC) 105 % of control

BrC1=CC(Br)=C2N=C(N3CCCC3)N=C3N=C(C(Br)(Br)Br)N=C1N32
inactive: dose: 7.5 mg/kg/injection, schedule: Q01DX005 (ip), vehicle: Klucel (hydroxypropylcellulose) (HPC) 94 % of control | dose: 15.0 mg/kg/injection, schedule: Q01DX005 (ip), vehicle: Klucel (hydroxypropylcellulose) (HPC) 92 % of control | dose: 30.0 mg/kg/injection, schedule: Q01DX005 (ip), vehicle: Klucel (hydroxypropylcellulose) (HPC) 86 % of control and 90 % of control | [2] 86 % of control | [3] 88 % of control | [4] 94 % of control

C/C(N=NC(=S)N1CCCC1)=C1\C=CC=CN1O
inactive: [7] 106 % of control | [8] 103 % of control | [9] 112 % of control

COC(=O)c1nnn(-c2ccc(S(N)(=O)=O)cc2)c1C(=O)c1ccc(Cl)c(Cl)c1
inactive: [10] 109 % of control | [11] 109 % of control | [12] 94 % of control

Cc1cc(C(=O)N/N=C/c2cc(Cl)cc(Cl)c2O)c2cc(Br)ccc2n1
inactive: dose: 50.0 mg/kg/injection, schedule: Q01DX009 (ip), vehicle: saline with Tween-80 91 % of control | [13] 91 % of control | [14] 93 % of control

CCCCOP(=O)(Nc1ccccc1)OCCCC
inactive: [13] 110 % of control | [14] 112 % of control | dose: 400.0 mg/kg/injection, schedule: Q01DX009 (ip), vehicle: saline with Tween-80 110 % of control

COC1=CC(=O)C(O)=C/C1=C\C=C\c1ccccc1
inactive: dose: 2.5 mg/kg/injection, schedule: Q01DX009 (ip), vehicle: saline with Tween-80 107 % of control | dose: 5.0 mg/kg/injection, schedule: Q01DX009 (ip), vehicle: saline with Tween-80 104 % of control | dose: 10.0 mg/kg/injection, schedule: Q01DX009 (ip), vehicle: saline with Tween-80 110 % of control

CCN(CC)CCCNC(C)=O
inactive: dose: 100.0 mg/kg/injection, schedule: Q04DX003 (ip), vehicle: saline 100 % of control | dose: 200.0 mg/kg/injection, schedule: Q04DX003 (ip), vehicle: saline 91 % of control | dose: 400.0 mg/kg/injection, schedule: Q04DX003 (ip), vehicle: saline 95 % of control

COc1ccc2[nH]c(C)c(CN(C(C)=O)C(C)=O)c(=O)c2c1
inactive: [10] 103 % of control | [11] 112 % of control | [12] 86 % of control

Cn1c(N)c2c(=O)n(C)c3c(c2c(C#N)c1=O)CCSc1ccccc1-3
inactive: [7] 94 % of control | [8] 93 % of control

Cn1c(=O)c2nc(-c3ccc(Cl)c(Cl)c3)oc2n(C)c1=O
inactive: [15] 109 % of control | [16] 111 % of control | [17] 100 % of control

COc1ccc2c(c1OC)-c1ccccc1C(=O)OC2
inactive: dose: 100.0 mg/kg/injection, schedule: Q04DX002 (ip), vehicle: saline with Tween-80 109 % of control | dose: 200.0 mg/kg/injection, schedule: Q04DX002 (ip), vehicle: saline with Tween-80 100 % of control | dose: 400.0 mg/kg/injection, schedule: Q04DX002 (ip), vehicle: saline with Tween-80 91 % of control

CC(Cc1ccc(O)cc1)NCC(O)c1cc(O)cc(O)c1 (stereo not drawn)
inactive: [15] 96 % of control | dose: 66.0 mg/kg/injection, schedule: Q01DX009 (ip), vehicle: saline 99 % of control and 87 % of control | [16] 99 % of control and 100 % of control | dose: 150.0 mg/kg/injection, schedule: Q01DX009 (ip), vehicle: saline 91 % of control and 93 % of control | [17] 112 % of control

CCO/C(=N/S(C)(=O)=O)NO
inactive: [1] 102 % of control | [5] 106 % of control | [6] 102 % of control

ClC1=CC(=N/Br)/C=CC/1=N/Br
inactive: [7] 99 % of control and 101 % of control and 107 % of control | [8] 100 % of control and 103 % of control and 97 % of control | [9] 106 % of control and 108 % of control and 120 % of control

CNc1ncnc2c1ncn2C1CCCCO1 (stereo not drawn)
inactive: dose: 50.0 mg/kg/injection, schedule: Q01DX005 (ip), vehicle: saline 102 % of control | dose: 100.0 mg/kg/injection, schedule: Q01DX005 (ip), vehicle: saline 100 % of control | dose: 200.0 mg/kg/injection, schedule: Q01DX005 (ip), vehicle: saline 91 % of control

COc1ccc(C(NC(N)=O)c2cc3c(cc2OC(C)=O)OCO3)cc1 (stereo not drawn)
inactive: [2] 98 % of control | [3] 92 % of control | [4] 93 % of control

C(=C\c1cccs1)/c1csnn1
inactive: [10] 101 % of control | [11] 102 % of control | [12] 101 % of control

Cn1cnccc1=O
inactive: dose: 6.25 mg/kg/injection, schedule: Q01DX009 (ip), vehicle: saline 102 % of control | dose: 12.5 mg/kg/injection, schedule: Q01DX009 (ip), vehicle: saline 103 % of control | dose: 25.0 mg/kg/injection, schedule: Q01DX009 (ip), vehicle: saline 106 % of control | [15] 106 % of control | [16] 103 % of control

COc1cc(C2c3cc4c(cc3CCN2C)OCO4)cc(OC)c1OC (stereo not drawn)
inactive: [7] 106 % of control | [8] 94 % of control

O=C(CN1CCN(c2ccccc2)CC1)n1cnc2ccc([N+](=O)[O-])cc21
inactive: [10] 96 % of control | [11] 91 % of control

CC[N+](CC)(CC)c1ccccc1
inactive: dose: 6.25 mg/kg/injection, schedule: Q04DX002 (ip), vehicle: saline 105 % of control | dose: 12.5 mg/kg/injection, schedule: Q04DX002 (ip), vehicle: saline 111 % of control | dose: 25.0 mg/kg/injection, schedule: Q04DX002 (ip), vehicle: saline 100 % of control and 104 % of control

CNC(=O)Sc1nnnc2ccccc12
inactive: dose: 100.0 mg/kg/injection, schedule: Q01DX001 (ip), vehicle: saline with Tween-80 109 % of control | dose: 200.0 mg/kg/injection, schedule: Q01DX001 (ip), vehicle: saline with Tween-80 104 % of control | dose: 400.0 mg/kg/injection, schedule: Q01DX001 (ip), vehicle: saline with Tween-80 118 % of control
